Reference: PubChem BioAssay AID743372 (Vanderbilt Specialized Chemistry Center, 2014)

Target: D(4) dopamine receptor (Homo sapiens) (UniProt P21917)
Experiment: D4 dopamine receptor antagonists, confirmation, cell-based, human (AID 743372)
Conditions: cells expressing human D4 receptor, antagonist mode

Compound	IC50 [nM]
Clc1ccc(CN2CCO[C@H](CCc3ccccc3)C2)cc1	130
Cc1ccccc1CN1CCOC(CCc2ccccc2)C1 (stereo unspecified)	3680
Clc1ccc(CN2CCOC(CCc3ccccc3)C2)cc1 (stereo unspecified)	290
COc1ccc(CN2CCO[C@@H](CCc3ccccc3)C2)cc1	100
FC(F)(F)Oc1cccc(CN2CCOC(CCc3ccccc3)C2)c1 (stereo unspecified)	390
c1ccc(CCC2CN(Cc3ccccc3)CCO2)cc1 (stereo unspecified)	1480
Fc1cccc(F)c1CN1CCOC(CCc2ccccc2)C1 (stereo unspecified)	3880
FC(F)(F)Oc1ccc(CN2CCOC(CCc3ccccc3)C2)cc1 (stereo unspecified)	160
Fc1ccc(CN2CCOC(CCc3ccccc3)C2)cc1 (stereo unspecified)	1140
FC(F)(F)Oc1ccc(CN2CCO[C@H](CCc3ccccc3)C2)cc1	230
COc1ccc(CN2CCOC(CCc3ccccc3)C2)cc1 (stereo unspecified)	170
